Measurements published in US12503448B2, “Antibacterial and antiparasitic quinoxaline-2,3-diamine derivatives” (University College Cardiff Consultants Limited, priority 2019, dated 2025).
pEC50: −log10 of the molar value. Converted amounts (≈) assume the structure as drawn. Like-named read-outs stand apart in the source and are kept apart here.

Key:
[1] = test system: S. mansoni schistosomula; assay: 72 hours schistosomula drug screen; type: cell-based, Schistosoma mansoni; conditions: for Selectivity Index Schistosomula: HepG2 CC50 over schistosomula EC50; for pEC50: Schistosoma mansoni
Method: Biological Screening 72 Hours Schistosomula Drug Screen […] G. Colley, […], Schistosoma mansoni: simplified method for the production of schistosomules., Exp. Parasitol. 35 (1974) 44-51. Newly transformed schistosomula were prepared for 72 hour high throughput screening (HTS) in 384-well black-sided microtiter plates (Perkin Elmer, MA, USA) as described in M. Nur-e-alam, M. Yousaf, […]. Bari, H. A. Ghabbour, […]. Ho, A. J. […], Neoclerodane Diterpenoids from […], Teucrium […]. Nat. […] The data obtained in this manner is shown in Table 1 in the columns labelled “Phenotype”, “Motility” and “Schistosomula average”.

[2] = MTT assay on HepG2 cells; type: cell-based; conditions: human
Method: MTT Assay on HepG2 Cells Human Hepatocyte Carcinoma (HepG2) cells (85011430, Sigma Aldrich) were used to assess the overt toxicity of these anti-infective compounds. […] A negative control (1% v/v Triton X-100; X100, Sigma-Aldrich) was also included in each screen. After addition of compounds, each plate was then incubated for a further 20 hrs before application of MTT reagent (prepared as described in Nur-[…], Bari A, Ghabbour […], Hoffmann […] Nat Prod. 2017 Jun. 23; 80(6):1900-1908 for the assessment of compound cytotoxicity using the MTT assay. […] The plate was then further incubated for 4 hrs. After incubation, each plate was blotted dry under the laminar flow to remove the MTT treated culture media. A 100 μl DMSO: isopropanol (1:1) solution was then added to each well and the plate was then subsequently incubated for 10 minutes at 37° C. Following incubation, each plate was shaken again and then absorbance measured at 570 nm. The absorbance reading was corrected based on the average value of the wells used as blank (no cells). […] The data obtained in this manner is shown in Table 1 in the columns labelled “HepG2”. […] The selectivity indexes for schistosomula and adult worms are shown in the final two columns in Table 1.

[3] = test system: S. mansoni adult worms; assay: Adult worm drug screen (WHO scoring, WormassayGP2); type: cell-based, Schistosoma mansoni
Excerpt: Mice (MF-1 mice, Harlan, UK), infected 7 weeks previously with 180 cercaria, were euthanised with an intraperitoneal injection of phenobarbital/heparin solution. Adult worms were recovered by perfusion of the portal system and subjected to drug screening as previously described in Padalino G, Ferla S, Brancale A, Chalmers I W, Hoffmann K F. Int J Parasitol Drugs Drug Resist. 2018 December; 8(3):559-570; in Whiteland H L, Chakroborty A, Forde-Thomas J E, Crusco A, Cookson A, Hollinshead J, Fenn C A, Bartholomew B, Holdsworth P A, Fisher M, Nash R J, Hoffmann K F. Int J Parasitol Drugs Drug Resist. 2018 December; 8(3):465-474; and in Crusco A, Bordoni C, Chakroborty A, Whatley K C L, Whiteland H, Westwell A D, Hoffmann K F. Eur J Med Chem. 2018 May 25; 152:87-100. The data obtained in this manner is shown in Table 1 in the columns labelled “Adult worm”.
Regarding the quantification of drug treatment on adult worms (e.g. decreased activity, paralysis or sluggishness), two different approaches were used, as described below. Where egg deposition was noticed, eggs were removed and counted using a Sedgewick rafter slide.
Adult worms were scored using the standardized microscopic WHO-TDR scoring system previously described by Ramirez, B., Bickle, Q., Yousif, F., Fakorede, F., Mouries, M.-A., Nwaka, S. in Schistosomes: Challenges in compound screening, Expert Opin Drug Discov. 2007 October; 2(s1): S53-61. This scoring system (0-4) identifies changes in worm movement and is defined according to the following scoring matrix: 0=no movement, 1=no movement with visible gut peristalsis, 2=minimal movement (occasional movement from anterior or posterior end of the worm), 3=slow continuous movement and 4=normal movement.
A digital image processing-based system was also used to assess parasite motility after drug treatment and is a modification of methods previously described by Marcellino C., Gut, J., Lim, K., Singh R., McKerrow, L. and Sakanari, J. WormAssay: a novel computer application for whole-plate motion-based screening of macroscopic parasites. PLoS Negl Trop Dis. 2012 January:6(1):e1494. This allowed for objective verification of the WHO method described above. The data obtained with this quantification method is shown in Table 1 in the columns labelled “Adult worm”.

[4] = test system: F. hepatica newly excysted juveniles (NEJs); assay: Newly excysted juveniles (NEJs) drug screen; type: cell-based, Fasciola hepatica; set-up: scale not given here; conditions: 10 μM, 72 h; higher score indicates lower worm activity
Method: Newly Excysted Juveniles (NEJs) Drug Screen
F. hepatica (Italian strain) metacercariae were obtained from Ridgeway Research, Gloucestershire, UK and stored at 4° C. Newly excysted juveniles (NEJs) from metacercariae were produced based on an optimisation introduced to the excystment method published by Dixon et al. and Wilson et al (Dixon, K. E., The physiology of excystment of the metacercaria of Fasciola hepática L. Parasitology, 1966, 56, 431-456.; Wilson, L. R., Good, R. T., Panaccio, M., Wijffels, G. L., Sandeman, R. M., Spithill, T. W, Fasciola hepatica: Characterization and Cloning of the Major Cathepsin B Protease Secreted by Newly Excysted Juvenile Liver Fluke. Experimental Parasitology 1998, 88, 85-94).
After excystment, NEJs were distributed into a 24 well tissue culture plate at a density of 25 parasites per well containing 1 mL of pre-warmed NEJs culture media. Compounds were added to respective wells and NEJ/compound co-cultures were incubated at 37° C. in an atmosphere containing 5% CO2 for 72 hours at a final concentration of 10 μM.
F. hepatica NEJs (25 per well) were incubated with the three compounds at a concentration of 10 μM (in 0.1% DMSO) and cultured for 72 hrs at 37° C. in an atmosphere containing 5% CO2. Control wells (25 NEJs per well) included those containing 0.1% DMSO (solvent) and RMPI (media) as negative controls or 10 μM Triclabendazole (0.1% DMSO, as positive control, labelled “Tbz” (Comp. 3). After 72 hrs, all NEJs were scored for phenotype and motility metrics. For each treatment, an average of both phenotype and motility score was calculated based on the individual parasite scores (across two independent replicates), wherein a higher score indicates lower worm activity. SD is reported on the bar chart.

[5] = test system: E. coli ATCC 25922; assay: In vitro antibacterial activity; type: cell-based; conditions: Escherichia coli, ATCC25922
[6] = test system: S. aureus ATCC 29213; assay: In vitro antibacterial activity; type: cell-based; conditions: Staphylococcus aureus, ATCC29213
[7] = test system: M. smegmatis mc^2 15 ATCC 700084; assay: In vitro antibacterial activity; type: cell-based, Mycobacterium smegmatis; conditions: Mycolicibacterium smegmatis, ATCC700084
[8] = test system: MRSA USA 300; assay: In vitro antibacterial activity; type: cell-based; conditions: Staphylococcus aureus
[9] = test system: MRSA ATCC 33591; assay: In vitro antibacterial activity; type: cell-based; conditions: Staphylococcus aureus
[10] = test system: MRSA EM RSA; assay: In vitro antibacterial activity; type: cell-based; conditions: Staphylococcus aureus
Excerpt: (§1) In vitro Determination of Antibacterial Activity
(§2) Scientific Reports 8 (1), 2018. Bacterial strains of Enterococcus faecalis—ATCC 29212, NCTC 12201, ATCC 51299; Streptococcus pneumoniae—ATCC 49619, 18778, 21394, 21395; Haemophilus influenza—ATCC 49766, 18391, 17428; Staphylococcus aureus—NCTC 12493, ATCC BAA-077, ATCC 700698, 11051; used for testing the compounds, as previously described in “Clinical laboratory testing and in vitro diagnostics test systems—Susceptibility testing of infectious agents and evaluation of performance of antimicrobial susceptibility devices—Part 1: Reference methods for testing the in vitro activity of antimicrobial agentes against bacteria involved in infectious diseases, ISO/FDIS 20776-1:2006(E). All the procedures were carried out in a biosafety containment level 2.

[11] = test system: Pseudomonas aeruginosa ATCC 27853; assay: In vitro antibacterial activity; type: cell-based; conditions: Pseudomonas aeruginosa, ATCC27853
[12] = test system: S. epidermidis NTCT11077; assay: In vitro antibacterial activity; type: cell-based; conditions: Staphylococcus epidermidis, NTCT11077
[13] = test system: B. cereus; assay: In vitro antibacterial activity; type: cell-based; conditions: Bacillus cereus; B. cereus; read-out: MIC90
[14] = test system: Enterococcus faecalis ATCC 29212; assay: Antibacterial MIC (ISO 20776-1); type: cell-based; conditions: Enterococcus faecalis, ATCC29212
Excerpt: as §1, §2

[15] = test system: Enterococcus faecalis ATCC 51299; assay: Antibacterial MIC (ISO 20776-1); type: cell-based; conditions: ATCC51299; Enterococcus faecalis ATCC 51299, Vancomycin resistance, vanB
Excerpt: as §1, §2

[16] = test system: Enterococcus faecalis NCTC 12201; assay: Antibacterial MIC (ISO 20776-1); type: cell-based; conditions: NCTC12201; Enterococcus faecalis NCTC 12201, Vancomycin resistance, vanA
Excerpt: as §1, §2

[17] = test system: Haemophilus influenzae 17428; assay: Antibacterial MIC (ISO 20776-1); type: cell-based; conditions: Haemophilus influenzae 17428, Ampicillin resistance, PBP
Excerpt: as §1, §2

[18] = test system: Haemophilus influenzae 18391; assay: Antibacterial MIC (ISO 20776-1); type: cell-based; conditions: Haemophilus influenzae 18391, AMP/COA resistance, PBP/β-lactamase
Excerpt: as §1, §2

[19] = test system: Haemophilus influenzae ATCC 49766; assay: Antibacterial MIC (ISO 20776-1); type: cell-based; conditions: ATCC49766
Excerpt: as §1, §2

[20] = test system: Staphylococcus aureus 11051; assay: Antibacterial MIC (ISO 20776-1); type: cell-based; conditions: Staphylococcus aureus, 11051
Excerpt: as §1, §2

[21] = test system: Staphylococcus aureus ATCC 700698; assay: Antibacterial MIC (ISO 20776-1); type: cell-based; conditions: ATCC700698; Staphylococcus aureus ATCC 700698, Vancomycin resistance, hVISA; read-out: MIC
Excerpt: as §1, §2

[22] = test system: Staphylococcus aureus ATCC BAA-977; assay: Antibacterial MIC (ISO 20776-1); type: cell-based; conditions: Staphylococcus aureus, ATCCBAA977
Excerpt: as §1, §2

[23] = test system: Staphylococcus aureus NCTC 12493; assay: Antibacterial MIC (ISO 20776-1); type: cell-based; conditions: Staphylococcus aureus, NCTC12493
Excerpt: as §1, §2

[24] = test system: Streptococcus pneumoniae 18778; assay: Antibacterial MIC (ISO 20776-1); type: cell-based; conditions: Streptococcus pneumoniae, 18778
Excerpt: as §1, §2

[25] = test system: Streptococcus pneumoniae 21394; assay: Antibacterial MIC (ISO 20776-1); type: cell-based; conditions: Streptococcus pneumoniae, 21394
Excerpt: as §1, §2

[26] = test system: Streptococcus pneumoniae 21395; assay: Antibacterial MIC (ISO 20776-1); type: cell-based; conditions: Streptococcus pneumoniae, 21395
Excerpt: as §1, §2

[27] = test system: Streptococcus pneumoniae ATCC 49619; assay: Antibacterial MIC (ISO 20776-1); type: cell-based; conditions: Streptococcus pneumoniae, ATCC49619
Excerpt: as §1, §2

[28] = schistosomula, 72 hour culture, read-out: EC50 Motility
[29] = schistosomula, 72 hour culture, read-out: EC50 Phenotype

Structure (SMILES): Cc1cccc(Nc2nc3ccc([N+](=O)[O-])cc3nc2Nc2cccc(C)c2)c1 [Compound 21]
- Selectivity Index Schistosomula [1]: 11
- pEC50 [1, 28]: 5.91
- pEC50 [1, 29]: 5.79
- CC50 at 24 h [2]: 15600 nM

Structure (SMILES): O=[N+]([O-])c1ccc2nc(Nc3ccc(F)cc3)c(Nc3ccc(F)cc3)nc2c1 [Compound 6, N^2, N^3-bis(4-fluorophenyl)-6-nitroquinoxaline-2,3-diamine]
- Selectivity Index Schistosomula [1]: 12
- pEC50 [1, 28]: 5.85
- pEC50 [1, 29]: 5.67
- Selectivity Index Adult ([3]; HepG2 CC50 over adult worm EC50): 121
- pEC50 ([3]; Schistosoma mansoni, adult worms): 6.74
- CC50 at 24 h [2]: 22000 nM

Structure (SMILES): O=C(Nc1ccc2nc(Nc3ccc(Cl)c(Cl)c3)c(Nc3ccc(Cl)c(Cl)c3)nc2c1)c1ccco1 [Compound 19, N-(2,3-bis((3,4-dichlorophenyl)amino)quinoxalin-6-yl)furan-2-carboxamide]
- Selectivity Index Schistosomula [1]: 8
- pEC50 ([1]; average of phenotype and motility, read-out: EC50 Schistosomula average): 5.71
- pEC50 [1, 28]: 5.88
- pEC50 [1, 29]: 5.60
- Motility (M) Mean score [4]: 3.36
- Phenotype (P) Mean score [4]: 3.40
- MIC90 [5]: > 125 µg/mL
- MIC90 [6]: 31.2 µg/mL (≈ 55.9 µM)
- MIC90 [7]: > 125 µg/mL
- MIC90 [8]: 62.5 µg/mL (≈ 112 µM)
- MIC90 [9]: 15.6 µg/mL (≈ 27.9 µM)
- MIC90 [10]: 62.5 µg/mL (≈ 112 µM)
- MIC90 [11]: > 125 µg/mL
- MIC90 [12]: 125 µg/mL (≈ 224 µM)
- MIC90 [13]: < 62.5 µg/mL
- MIC [14]: 4 µg/mL (≈ 7.15 µM)
- MIC [15]: 2 µg/mL (≈ 3.58 µM)
- MIC [16]: 0.25 µg/mL (≈ 0.447 µM)
- MIC [17]: 64 µg/mL (≈ 114 µM)
- MIC [18]: 64 µg/mL (≈ 114 µM)
- MIC [19]: 64 µg/mL (≈ 114 µM)
- MIC [20]: 8 µg/mL (≈ 14.3 µM)
- MIC [21]: 8 µg/mL (≈ 14.3 µM)
- MIC [22]: 8 µg/mL (≈ 14.3 µM)
- MIC [23]: 1 µg/mL (≈ 1.79 µM)
- MIC [24]: 8 µg/mL (≈ 14.3 µM)
- MIC [25]: 8 µg/mL (≈ 14.3 µM)
- MIC [26]: 8 µg/mL (≈ 14.3 µM)
- MIC [27]: 8 µg/mL (≈ 14.3 µM)
